Measured values as given in patent US11311576B2, “Methods of use for CAR T cells” (Seattle Children's Hospital, priority 2018, dated 2022).

Key:
MDA-MB-231 tumors = assay: EC17/E2-CAR T-cell therapy in NSG mice bearing MDA-MB-231 tumors; type: in vivo; conditions: 10 million E2 CAR-T cells, EC17 500 nmol/kg days 2 and 10, versus no EC17
Procedure: MDA-MB-231 tumor cells were grown in folate-deficient RPMI 1640 with 5-10% FBS at 37° C. in a 5% CO2 humidified atmosphere. MDA-MB-231 tumor cells were inoculated subcutaneously at 2.5×10^6 cells per animal. Only […] mice were inoculated and the remaining 22 mice were kept tumor-free.
EGFRt-sorted anti-FITC E2 scFv-CAR T cells were frozen in a T-cell freezing medium. Vials of frozen CAR-T cells were immediately stored at −80° C. The CAR-T cells were quickly thawed at 37° C., washed twice with PBS, and used for animal injection at 10 million viable EGFRt+E2 CAR-T cells (CD4/CD8 at ˜1:1) per animal. […]
Whole blood cell analysis: Plasma was removed from predetermined volumes of whole EDTA treated blood and RBCs were lysed with RBC lysis solution. […] Determination of the concentration of CAR T cells in each blood sample was calculated according to Invitrogen's instructions. CAR T cells were identified as human CD3ε+ EGFRt+ events and easily distinguished and counted using the Kaluza™ flow cytometry software. The number of CAR T cells in the circulation of each infused mouse was then represented on the graphs as the total number of CAR T cells per 100 μL of whole blood analyzed. Statistical significance was determined by utilizing an unpaired, two-tailed, students t30 test with significance set at p<0.05. […]

MDA-MB-231 tumor = assay: Kinetics of CAR-T cell expansion and tumor uptake in MDA-MB-231 tumor bearing mice; type: in vivo, NSG mice
Procedure: When the tumor sizes averaged at ˜350±60 mm^3 on day 2, up to […] of EC17 at 500 nmol/kg were given on days 2, 9, 16, 23, and 30. For ex-vivo analysis, 3 animals were taken before the next EC17 dose on days 9, 16, 23, and 30 for a total of 4 collections. For comparison, the same EC17 dose was given to 3 CAR-T mice that had ˜4.4× larger tumor sizes on day 2 (˜1555±79 mm3). For each collection, fresh blood and tumor samples (if available) were analyzed for the presence of human CD3e+ EGFRt+ CAR-T cells by flow cytometry.
For CAR-T cell analysis in the circulation, plasma was removed from a predetermined volume of whole blood collected into tubes containing ethylenediaminetetraacetic acid anticoagulant. […] A minimum of 20,000 propidium iodide negative live cell events were collected on the Gallios flow cytometer and analyzed with the Kaluza software, version 2.1 (Beckman Coulter, Brea, Calif.). CAR-positive T cells were identified in mouse blood as human CD3e+ EGFRt+ events and absolute numbers per volume of blood were calculated using equal numbers of CountBright™ beads (Invitrogen, Carlsbad, Calif.) added to each sample. The number of tumor-infiltrating CD3ε+ EGFRt+ CAR-T cells was expressed as % total viable tumor cells analyzed.

## NC1=NC2N=CC(CNc3ccc(C(=O)N[C@@H](CCC(=O)NCCNC(=S)Nc4ccc(-c5c6ccc(=O)cc-6oc6cc(O)ccc56)c(C(=O)O)c4)C(=O)O)cc3)=NC2C(=O)N1 (stereo partly drawn) [EC17, FA-(g)-ethylenediamine-FITC]
MDA-MB-231 tumors
  cytokine levels (IL2, IFN-γ, IL-10) in plasma: all increased
MDA-MB-231 tumor; ~4.8 million E2-CAR-T cells, after EC17 administration, especially third dose
  body weight loss: mild body weight loss
MDA-MB-231 tumor; ~4.8 million EGFRt-sorted E2-CAR-T cells, weekly EC17 500 nmol/kg
  tumor response: started to respond after the second EC17 dose
